# Patent US8703204B2, “Nanoparticles comprising a cholesteryl ester transfer protein inhibitor and anon-ionizable polymer” (Bend Research, Inc., priority 2007, dated 2014)
# Read-outs that look alike come from different tables or passages of the source.
# Experiment: Solubility of the drugs in aqueous media
# Assay type: physicochemical
structure (smiles),measurement,setting,value
"CCc1cc(Oc2cccc(N(Cc3cccc(OC(F)(F)C(F)F)c3)C[C@@H](O)C(F)(F)F)c2)ccc1Cl [Drug 1, (2R)-3-[[3-(4-chloro-3-ethylphenoxy)phenyl][[3-(1,1,2,2-tetrafluoroethoxy)phenyl]methyl]amino]-1,1,1-trifluoro-2-propanol]",solubility,"phosphate buffered saline, aqueous buffer, PBS, pH 6.5, read-out: solubility in phosphate buffered saline at pH 6.5 (PBS)",< 0.1 µg/mL
"CC[C@@H]1C[C@H](N(Cc2cc(C(F)(F)F)cc(C(F)(F)F)c2)C(C)=O)c2cc(C(F)(F)F)ccc2N1C(=O)OC(C)C [Drug 2, [2R,4S]4-[acetyl-(3,5-bis-trifluoromethyl-benzyl)-amino]-2-ethyl-6-trifluoromethyl-3,4-dihydro-2H-quinoline-1-carboxylic acid isopropyl ester]",solubility,"model fasted duodenal (MFD) solution, fassgf or other biorelevant, MFD solution, read-out: solubility in model fasted duodenal (MFD) solution",~11 µg/mL
"CCOC(=O)N1c2ccc(C(F)(F)F)cc2[C@@H](N(Cc2cc(C(F)(F)F)cc(C(F)(F)F)c2)C(=O)OC)C[C@H]1CC [Drug 3, [2R,4S]4-[(3,5-bis-trifluoromethyl-benzyl)-methoxycarbonyl-amino]-2-ethyl-6-trifluoromethyl-3,4-dihydro-2H-quinoline-1-carboxylic acid ethyl ester, reference compound]",solubility,"water, read-out: solubility in water",< 0.1 µg/mL
